Assay results from paper PMC6412119 (2019).

Tested on: c-MYC Pu22-G10>T10 (DNA, G4) TGAGGGTGGTTAGGGTGGGTAA
Experiment: fluorescence light-up
Details: 100 mM KCl; 10 mM potassium phosphate pH 7.0; 0.5 μM each; weak response

C(=NNc1nc(Nc2ccccc2)nc(Nc2ccccc2)n1)c1c2ccccc2cc2ccccc12
binding: weak
